In PubChem BioAssay AID1963849 (Molecular Pharmacology Branch, DTP, NCI, 2024):

Tested on: 299254-011-R-J1-PDC complex spheroid viability
Experiment: Anticancer human tumor 299254-011-R-J1-PDC patient-derived melanoma cell line growth inhibition [POLQ]
Conditions: for IC50: curve of first compound; for viability, T/C: stronger effect = lower value
In short: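 Growth inhibition in 3D: complex spheroids (tumor PDC, HUVEC, MSC) treated with POLQ inhibitor combinations; where Cmax unknown, highest tested concentration 10 microM, except SN-38 at 1 microM.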

[1] = second compound 0.0316 µM, first compound 0.0316 µM
[2] = second compound 0.0316 µM, first compound 0.1 µM
[3] = second compound 0.1 µM, first compound 0.0316 µM
[4] = second compound 0.1 µM, first compound 0.1 µM
[5] = second compound 0.316 µM, first compound 0.0316 µM
[6] = second compound 0.316 µM, first compound 0.1 µM
[7] = second compound 1 µM, first compound 0.0316 µM
[8] = second compound 1 µM, first compound 0.1 µM
[9] = second compound 3.16 µM, first compound 0.0316 µM
[10] = second compound 3.16 µM, first compound 0.1 µM
[11] = second compound 10 µM, first compound 0.0316 µM
[12] = second compound 10 µM, first compound 0.1 µM
[13] = second compound 0.0316 µM, first compound 0.316 µM
[14] = second compound 0.0316 µM, first compound 1 µM
[15] = second compound 0.0316 µM, first compound 3.16 µM
[16] = second compound 0.0316 µM, first compound 10 µM
[17] = second compound 0.1 µM, first compound 0.316 µM
[18] = second compound 0.1 µM, first compound 1 µM
[19] = second compound 0.1 µM, first compound 3.16 µM
[20] = second compound 0.1 µM, first compound 10 µM
[21] = second compound 0.316 µM, first compound 0.316 µM
[22] = second compound 0.316 µM, first compound 1 µM
[23] = second compound 0.316 µM, first compound 3.16 µM
[24] = second compound 0.316 µM, first compound 10 µM
[25] = second compound 1 µM, first compound 0.316 µM
[26] = second compound 1 µM, first compound 1 µM
[27] = second compound 1 µM, first compound 3.16 µM
[28] = second compound 1 µM, first compound 10 µM
[29] = second compound 3.16 µM, first compound 0.316 µM
[30] = second compound 3.16 µM, first compound 1 µM
[31] = second compound 3.16 µM, first compound 3.16 µM
[32] = second compound 3.16 µM, first compound 10 µM
[33] = second compound 10 µM, first compound 0.316 µM
[34] = second compound 10 µM, first compound 1 µM
[35] = second compound 10 µM, first compound 3.16 µM
[36] = second compound 10 µM, first compound 10 µM
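Further: spheroids exposed to drugs for one week before measurement.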
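Wherever viability, T/C is given: percent viability relative to DMSO vehicle control taken as 100%.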

CC[C@@]1(O)C(=O)OCc2c1cc1n(c2=O)Cc2cc3c(CN(C)C)c(O)ccc3nc2-1 + Cc1cccc(N(C)C(=O)C2C(O)CCN2c2nc(C)cc(C(F)(F)F)c2C#N)c1
IC50 (second compound 0.0316 µM): > 100 nM | IC50 (second compound 0.1 µM): > 100 nM | IC50 (second compound 0.316 µM): > 100 nM | IC50 (second compound 1 µM): > 100 nM | IC50 (second compound 3.16 µM): > 100 nM | IC50 (second compound 10 µM): > 100 nM | viability, T/C (second compound 0.0316 µM, first compound 0.000316 µM): 101% | viability, T/C (second compound 0.0316 µM, first compound 0.001 µM): 100% | viability, T/C (second compound 0.0316 µM, first compound 0.00316 µM): 95.6% | viability, T/C (second compound 0.0316 µM, first compound 0.01 µM): 104% | viability, T/C [1]: 117% | viability, T/C [2]: 81% | viability, T/C (second compound 0.1 µM, first compound 0.000316 µM): 104% | viability, T/C (second compound 0.1 µM, first compound 0.001 µM): 98.6% | viability, T/C (second compound 0.1 µM, first compound 0.00316 µM): 97% | viability, T/C (second compound 0.1 µM, first compound 0.01 µM): 113% | viability, T/C [3]: 113% | viability, T/C [4]: 84.1% | viability, T/C (second compound 0.316 µM, first compound 0.000316 µM): 110% | viability, T/C (second compound 0.316 µM, first compound 0.001 µM): 115% | viability, T/C (second compound 0.316 µM, first compound 0.00316 µM): 103% | viability, T/C (second compound 0.316 µM, first compound 0.01 µM): 120% | viability, T/C [5]: 116% | viability, T/C [6]: 80.9% | viability, T/C (second compound 1 µM, first compound 0.000316 µM): 111% | viability, T/C (second compound 1 µM, first compound 0.001 µM): 112% | viability, T/C (second compound 1 µM, first compound 0.00316 µM): 100% | viability, T/C (second compound 1 µM, first compound 0.01 µM): 123% | viability, T/C [7]: 99.2% | viability, T/C [8]: 90.5% | viability, T/C (second compound 3.16 µM, first compound 0.000316 µM): 108% | viability, T/C (second compound 3.16 µM, first compound 0.001 µM): 115% | viability, T/C (second compound 3.16 µM, first compound 0.00316 µM): 89.1% | viability, T/C (second compound 3.16 µM, first compound 0.01 µM): 106% | viability, T/C [9]: 119% | viability, T/C [10]: 89.6% | viability, T/C (second compound 10 µM, first compound 0.000316 µM): 94.9% | viability, T/C (second compound 10 µM, first compound 0.001 µM): 102% | viability, T/C (second compound 10 µM, first compound 0.00316 µM): 90.8% | viability, T/C (second compound 10 µM, first compound 0.01 µM): 97% | viability, T/C [11]: 95.3% | viability, T/C [12]: 69.7%

COc1cc2cc(C(=O)CCC(=O)O)sc2cc1OC + COC1C(OC(N)=O)C(O)C(Oc2ccc3c(O)c(NC(=O)c4ccc(O)c(CC=C(C)C)c4)c(=O)oc3c2C)OC1(C)C
IC50 (second compound 0.0316 µM): > 10000 nM | IC50 (second compound 0.1 µM): > 10000 nM | IC50 (second compound 0.316 µM): > 10000 nM | IC50 (second compound 1 µM): > 10000 nM | IC50 (second compound 3.16 µM): > 10000 nM | IC50 (second compound 10 µM): > 10000 nM | viability, T/C [1]: 112% | viability, T/C [2]: 98.3% | viability, T/C [13]: 106% | viability, T/C [14]: 100% | viability, T/C [15]: 113% | viability, T/C [16]: 102% | viability, T/C [3]: 95.8% | viability, T/C [4]: 109% | viability, T/C [17]: 101% | viability, T/C [18]: 116% | viability, T/C [19]: 99.2% | viability, T/C [20]: 114% | viability, T/C [5]: 112% | viability, T/C [6]: 93.1% | viability, T/C [21]: 104% | viability, T/C [22]: 110% | viability, T/C [23]: 113% | viability, T/C [24]: 109% | viability, T/C [7]: 91.8% | viability, T/C [8]: 104% | viability, T/C [25]: 104% | viability, T/C [26]: 109% | viability, T/C [27]: 104% | viability, T/C [28]: 125% | viability, T/C [9]: 108% | viability, T/C [10]: 96% | viability, T/C [29]: 94% | viability, T/C [30]: 110% | viability, T/C [31]: 112% | viability, T/C [32]: 108% | viability, T/C [11]: 103% | viability, T/C [12]: 104% | viability, T/C [33]: 95% | viability, T/C [34]: 107% | viability, T/C [35]: 110% | viability, T/C [36]: 97.5%

C#Cc1c(F)ccc2cc(O)cc(-c3ncc4c(N5CC6CCC(C5)N6)nc(OCC56CCCN5CC(F)C6)nc4c3F)c12 (stereo not drawn) + Cc1cccc(N(C)C(=O)C2C(O)CCN2c2nc(C)cc(C(F)(F)F)c2C#N)c1
IC50 (second compound 0.0316 µM): > 10000 nM | IC50 (second compound 0.1 µM): > 10000 nM | IC50 (second compound 0.316 µM): > 10000 nM | IC50 (second compound 1 µM): > 10000 nM | IC50 (second compound 3.16 µM): > 10000 nM | IC50 (second compound 10 µM): > 10000 nM | viability, T/C [1]: 113% | viability, T/C [2]: 102% | viability, T/C [13]: 123% | viability, T/C [14]: 120% | viability, T/C [15]: 124% | viability, T/C [16]: 93.9% | viability, T/C [3]: 105% | viability, T/C [4]: 122% | viability, T/C [17]: 120% | viability, T/C [18]: 125% | viability, T/C [19]: 97.8% | viability, T/C [20]: 85.5% | viability, T/C [5]: 105% | viability, T/C [6]: 108% | viability, T/C [21]: 124% | viability, T/C [22]: 99.2% | viability, T/C [23]: 114% | viability, T/C [24]: 75.5% | viability, T/C [7]: 123% | viability, T/C [8]: 109% | viability, T/C [25]: 113% | viability, T/C [26]: 113% | viability, T/C [27]: 103% | viability, T/C [28]: 74.6% | viability, T/C [9]: 114% | viability, T/C [10]: 99.9% | viability, T/C [29]: 118% | viability, T/C [30]: 111% | viability, T/C [31]: 92% | viability, T/C [32]: 78.1% | viability, T/C [11]: 110% | viability, T/C [12]: 108% | viability, T/C [33]: 108% | viability, T/C [34]: 105% | viability, T/C [35]: 80.1% | viability, T/C [36]: 64.2%

Nc1ccn(C2OC(CO)C(O)C2(F)F)c(=O)n1 (stereo not drawn) + COC1C(OC(N)=O)C(O)C(Oc2ccc3c(O)c(NC(=O)c4ccc(O)c(CC=C(C)C)c4)c(=O)oc3c2C)OC1(C)C
IC50 (second compound 0.0316 µM): 81.8 nM | IC50 (second compound 0.1 µM): 76.7 nM | IC50 (second compound 0.316 µM): 63.1 nM | IC50 (second compound 1 µM): 79.6 nM | IC50 (second compound 3.16 µM): < 31.6 nM | IC50 (second compound 10 µM): 66.2 nM | viability, T/C [1]: 62.8% | viability, T/C [2]: 44.3% | viability, T/C [13]: 41.2% | viability, T/C [14]: 35.1% | viability, T/C [15]: 46.8% | viability, T/C [16]: 44.4% | viability, T/C [3]: 60.1% | viability, T/C [4]: 40.6% | viability, T/C [17]: 52.4% | viability, T/C [18]: 37.7% | viability, T/C [19]: 35.6% | viability, T/C [20]: 39.2% | viability, T/C [5]: 64.7% | viability, T/C [6]: 40.6% | viability, T/C [21]: 36.6% | viability, T/C [22]: 30.9% | viability, T/C [23]: 44.7% | viability, T/C [24]: 41.2% | viability, T/C [7]: 71.6% | viability, T/C [8]: 44.4% | viability, T/C [25]: 46.6% | viability, T/C [26]: 33.8% | viability, T/C [27]: 48.9% | viability, T/C [28]: 45.5% | viability, T/C [9]: 57% | viability, T/C [10]: 38.8% | viability, T/C [29]: 35% | viability, T/C [30]: 39.6% | viability, T/C [31]: 31.3% | viability, T/C [32]: 42.4% | viability, T/C [11]: 61% | viability, T/C [12]: 44.1% | viability, T/C [33]: 39.1% | viability, T/C [34]: 39.3% | viability, T/C [35]: 48.9% | viability, T/C [36]: 31.4%
